Source: ChEMBL document CHEMBL1201862, “PubChem BioAssay data set” (2004)
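Five compound concentrations were applied to cells in 96-well plates for 48 hours; endpoints were derived by simple linear interpolation of the resulting dose-response curve. GI50 = concentration required for 50% inhibition of growth.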 The source made the active and inactive calls. Rule as the data show it: active = GI50 up to about 1.1 µM and inactive = higher.

What was measured:
Test in all cases: NCI-60 cell line screen, 48 h
CAKI-1 = test system: CAKI-1
MDA-MB-435 = test system: MDA-MB-435
DU-145 = test system: DU-145
RXF 393 = test system: RXF 393
SF-539 = test system: SF-539
OVCAR-5 = test system: OVCAR-5
BT-549 = test system: BT-549
HCT-15 = test system: HCT-15
MCF7 = test system: MCF7
SF-295 = test system: SF-295
HCT-116 = test system: HCT-116
SN12C = test system: SN12C
NCI/ADR-RES = test system: NCI/ADR-RES
HOP-92 = test system: HOP-92
SF-268 = test system: SF-268
MOLT-4 = test system: MOLT-4
HT-29 = test system: HT-29
HL-60 = test system: HL-60
UO-31 = test system: UO-31
OVCAR-4 = test system: OVCAR-4
K562 = test system: K562
OVCAR-3 = test system: OVCAR-3
HOP-62 = test system: HOP-62
NCI-H23 = test system: NCI-H23
SK-MEL-2 = test system: SK-MEL-2
SW-620 = test system: SW-620
NCI-H226 = test system: NCI-H226
NCI-H522 = test system: NCI-H522
ACHN = test system: ACHN
UACC-257 = test system: UACC-257
SNB-75 = test system: SNB-75
MDA-MB-231 = test system: MDA-MB-231
IGROV-1 = test system: IGROV-1
PC-3 = test system: PC-3
SK-MEL-28 = test system: SK-MEL-28
MDA-N = test system: MDA-N
RPMI-8226 = test system: RPMI-8226
HCC 2998 = test system: HCC 2998
OVCAR-8 = test system: OVCAR-8
UACC-62 = test system: UACC-62
TK-10 = test system: TK-10
U-251 = test system: U-251
LOX IMVI = test system: LOX IMVI
M14 = test system: M14
COLO 205 = test system: COLO 205
CCRF-CEM = test system: CCRF-CEM
Hs-578T = test system: Hs-578T
SNB-19 = test system: SNB-19
SK-MEL-5 = test system: SK-MEL-5
KM12 = test system: KM12
EKVX = test system: EKVX
A549 = test system: A549
SK-OV-3 = test system: SK-OV-3
A498 = test system: A498
T47D = test system: T47D
786-0 = test system: 786-0
SR = test system: SR
Malme-3M = test system: Malme-3M
NCI-H460 = test system: NCI-H460

COc1ccc(N2C(N)=C(C#N)C(C#N)(C#N)C2c2cccc([N+](=O)[O-])c2)cc1 (centres undefined)
GI50 (CAKI-1): 2.61 µM (inactive) | GI50 (MDA-MB-435): 16.9 µM (inactive) | GI50 (DU-145): 17.8 µM (inactive) | GI50 (RXF 393): 9.23 µM (inactive) | GI50 (SF-539): 14.7 µM (inactive) | GI50 (OVCAR-5): 17.5 µM (inactive) | GI50 (BT-549): 17.9 µM (inactive) | GI50 (HCT-15): 15.5 µM | GI50 (MCF7): 19.9 µM (inactive) | GI50 (SF-295): 19.1 µM (inactive) | GI50 (HCT-116): 9.91 µM (inactive) | GI50 (SN12C): 16.1 µM (inactive) | GI50 (NCI/ADR-RES): 21.1 µM (inactive) | GI50 (HOP-92): 12.9 µM (inactive) | GI50 (SF-268): 20.6 µM (inactive) | GI50 (MOLT-4): 3.78 µM (inactive) | GI50 (HT-29): 13.9 µM (inactive) | GI50 (HL-60): 3.03 µM (inactive) | GI50 (UO-31): 17.3 µM (inactive) | GI50 (OVCAR-4): 17.7 µM (inactive) | GI50 (K562): 2.92 µM (inactive) | GI50 (OVCAR-3): 15.4 µM (inactive) | GI50 (HOP-62): 16.3 µM (inactive) | GI50 (NCI-H23): 15.5 µM (inactive) | GI50 (SK-MEL-2): 18.1 µM (inactive) | GI50 (SW-620): 11.2 µM (inactive) | GI50 (NCI-H226): 19.8 µM (inactive) | GI50 (NCI-H522): 7.14 µM (inactive) | GI50 (ACHN): 14.2 µM (inactive) | GI50 (UACC-257): 13.7 µM (inactive) | GI50 (SNB-75): 18.8 µM (inactive) | GI50 (MDA-MB-231): 14.9 µM (inactive) | GI50 (IGROV-1): 14.7 µM (inactive) | GI50 (PC-3): 17.1 µM (inactive) | GI50 (SK-MEL-28): 8.57 µM (inactive) | GI50 (MDA-N): 17.3 µM (inactive) | GI50 (RPMI-8226): 11.6 µM (inactive) | GI50 (HCC 2998): 16.9 µM (inactive) | GI50 (OVCAR-8): 17.9 µM (inactive) | GI50 (UACC-62): 15.9 µM (inactive) | GI50 (TK-10): 16.6 µM (inactive) | GI50 (U-251): 17.4 µM (inactive) | GI50 (LOX IMVI): 13.5 µM (inactive) | GI50 (M14): 17.3 µM (inactive) | GI50 (COLO 205): 10.7 µM (inactive) | GI50 (CCRF-CEM): 3.05 µM (inactive) | GI50 (Hs-578T): 24 µM (inactive) | GI50 (SNB-19): 17.9 µM (inactive) | GI50 (SK-MEL-5): 13.4 µM (inactive) | GI50 (KM12): 18.9 µM (inactive) | GI50 (EKVX): 20.7 µM (inactive) | GI50 (A549): 18.3 µM (inactive) | GI50 (SK-OV-3): 20.2 µM (inactive) | GI50 (A498): 16.1 µM (inactive) | GI50 (T47D): 12.6 µM (inactive) | GI50 (786-0): 14.5 µM (inactive) | GI50 (SR): 8.47 µM (inactive) | GI50 (Malme-3M): 6.73 µM (inactive)

CC(=O)Oc1cccc2c1C(=O)c1c(OC(C)=O)cc(C)cc1C2=O
GI50 (CAKI-1): > 100 µM (inactive) | GI50 (MDA-MB-435): 43.4 µM (inactive) | GI50 (DU-145): 56.6 µM (inactive) | GI50 (RXF 393): 28.2 µM (inactive) | GI50 (SF-539): 26.3 µM (inactive) | GI50 (OVCAR-5): > 100 µM (inactive) | GI50 (BT-549): 61.1 µM (inactive) | GI50 (HCT-15): 40.6 µM | GI50 (MCF7): 46 µM (inactive) | GI50 (SF-295): 29.1 µM (inactive) | GI50 (HCT-116): 33.6 µM (inactive) | GI50 (SN12C): 51.2 µM (inactive) | GI50 (NCI/ADR-RES): 21.1 µM (inactive) | GI50 (HOP-92): 70.6 µM (inactive) | GI50 (SF-268): 62.8 µM (inactive) | GI50 (MOLT-4): 26.6 µM (inactive) | GI50 (HT-29): 39.6 µM (inactive) | GI50 (HL-60): 23.6 µM (inactive) | GI50 (NCI-H460): 26.1 µM (inactive) | GI50 (OVCAR-4): 27.7 µM (inactive) | GI50 (K562): 29 µM (inactive) | GI50 (OVCAR-3): 16.4 µM (inactive) | GI50 (HOP-62): 32.4 µM (inactive) | GI50 (NCI-H23): 50.9 µM (inactive) | GI50 (SK-MEL-2): 29 µM (inactive) | GI50 (SW-620): 37 µM (inactive) | GI50 (NCI-H226): > 100 µM (inactive) | GI50 (NCI-H522): 12.2 µM (inactive) | GI50 (ACHN): 78.3 µM (inactive) | GI50 (UACC-257): > 100 µM (inactive) | GI50 (SNB-75): 36 µM (inactive) | GI50 (MDA-MB-231): 43 µM (inactive) | GI50 (IGROV-1): 25.7 µM (inactive) | GI50 (PC-3): 26.1 µM (inactive) | GI50 (SK-MEL-28): 27.9 µM (inactive) | GI50 (MDA-N): 58.5 µM (inactive) | GI50 (RPMI-8226): 12.6 µM (inactive) | GI50 (HCC 2998): 61.7 µM (inactive) | GI50 (OVCAR-8): 39.8 µM (inactive) | GI50 (UACC-62): 32.7 µM (inactive) | GI50 (TK-10): > 100 µM (inactive) | GI50 (U-251): 30.2 µM (inactive) | GI50 (LOX IMVI): 69 µM (inactive) | GI50 (M14): 81.7 µM (inactive) | GI50 (COLO 205): 58.2 µM (inactive) | GI50 (CCRF-CEM): 18.8 µM (inactive) | GI50 (Hs-578T): 46.6 µM (inactive) | GI50 (SNB-19): 30.3 µM (inactive) | GI50 (SK-MEL-5): 29 µM (inactive) | GI50 (KM12): 39.5 µM (inactive) | GI50 (EKVX): 24.4 µM (inactive) | GI50 (A549): 47.5 µM (inactive) | GI50 (SK-OV-3): 34 µM (inactive) | GI50 (A498): 37.8 µM (inactive) | GI50 (T47D): 32.4 µM (inactive) | GI50 (786-0): 20.4 µM (inactive) | GI50 (SR): 33 µM (inactive) | GI50 (Malme-3M): 17.1 µM (inactive)

Clc1ccc2oc(CCC3CCCCC3)nc2c1
GI50 (CAKI-1): 24.7 µM (inactive) | GI50 (MDA-MB-435): 27.3 µM (inactive) | GI50 (DU-145): 34.3 µM (inactive) | GI50 (RXF 393): 15.1 µM (inactive) | GI50 (SF-539): 32.1 µM (inactive) | GI50 (OVCAR-5): 33.3 µM (inactive) | GI50 (BT-549): 26.8 µM (inactive) | GI50 (HCT-15): 24.7 µM | GI50 (MCF7): 26.1 µM (inactive) | GI50 (SF-295): 22 µM (inactive) | GI50 (HCT-116): 31.4 µM (inactive) | GI50 (SN12C): 21.9 µM (inactive) | GI50 (NCI/ADR-RES): 30.3 µM (inactive) | GI50 (HOP-92): 35.2 µM (inactive) | GI50 (SF-268): 64.7 µM (inactive) | GI50 (MOLT-4): 16.4 µM (inactive) | GI50 (HT-29): 23.5 µM (inactive) | GI50 (HL-60): 16.3 µM (inactive) | GI50 (UO-31): 17.9 µM (inactive) | GI50 (NCI-H460): 24.9 µM (inactive) | GI50 (OVCAR-4): 27.4 µM (inactive) | GI50 (K562): 38.2 µM (inactive) | GI50 (OVCAR-3): 15.6 µM (inactive) | GI50 (HOP-62): 22.3 µM (inactive) | GI50 (NCI-H23): 29.9 µM (inactive) | GI50 (SK-MEL-2): 19.1 µM (inactive) | GI50 (SW-620): 31.8 µM (inactive) | GI50 (NCI-H226): 19.2 µM (inactive) | GI50 (NCI-H522): 21.9 µM (inactive) | GI50 (ACHN): 40.6 µM (inactive) | GI50 (UACC-257): 30.6 µM (inactive) | GI50 (SNB-75): 23 µM (inactive) | GI50 (MDA-MB-231): 28.3 µM (inactive) | GI50 (PC-3): 33 µM (inactive) | GI50 (SK-MEL-28): 33.3 µM (inactive) | GI50 (MDA-N): 33.3 µM (inactive) | GI50 (RPMI-8226): 37.3 µM (inactive) | GI50 (HCC 2998): 22.9 µM (inactive) | GI50 (OVCAR-8): 44.1 µM (inactive) | GI50 (UACC-62): 60.4 µM (inactive) | GI50 (TK-10): 26.4 µM (inactive) | GI50 (U-251): 19.3 µM (inactive) | GI50 (LOX IMVI): 4.7 µM (inactive) | GI50 (M14): 32 µM (inactive) | GI50 (COLO 205): 21.4 µM (inactive) | GI50 (CCRF-CEM): 18.5 µM (inactive) | GI50 (Hs-578T): 91.2 µM (inactive) | GI50 (SNB-19): 42.3 µM (inactive) | GI50 (SK-MEL-5): 16.9 µM (inactive) | GI50 (KM12): 26.4 µM (inactive) | GI50 (EKVX): 26.7 µM (inactive) | GI50 (A549): 31.6 µM (inactive) | GI50 (SK-OV-3): 26.1 µM (inactive) | GI50 (A498): 37.8 µM (inactive) | GI50 (T47D): 20.5 µM (inactive) | GI50 (786-0): 28.2 µM (inactive) | GI50 (SR): 19.7 µM (inactive) | GI50 (Malme-3M): 39.5 µM (inactive)
